Data published in US20060211632A1, “PXR agonists for cardiovascular disease” (priority 2005, published 2006).

Assays:
HDL-C = HDL-C in rats after 8 days of treatment; assay type: in vivo, rat
Procedure: (§1) Treatments were administered by gavage once daily in the morning for eight (8) days.
(§2) Whole blood was collected by cardiac puncture under CO2 anesthesia 8 hours following ethosuximide infusion. Animals were then sacrificed using CO2 and cervical dislocation. Livers were excised and used for analysis of erythromycin demethylase activity (as described in the Slama et al. reference) and hepatic apoA1 mRNA. Plasma was separated from whole blood anticoagulated with 5 mM EDTA at room temperature using a bench top centrifuge (5000 rpm) for 5 minutes. Plasma was stored unpreserved at −20° C. for up to 5 days, and subsequently analyzed for ethosuximide and for HDL-C. Concentrations of ethosuximide and HDL-C were measured in plasma by fluorescence polarization immunoassay (fpia) using a TDx analyzer (Abbott Laboratories, Irving, Tex.) and commercially available reagents (Abbott Laboratories, Abbott Park, Ill.).

serum ApoA1 [1] = assay: Serum apoA1 in wild-type mice after 7 days of treatment (immuno-turbidimetric assay); assay type: in vivo, wild-type (WT; C57BL/6) mice; conditions: for apoA1 relative to controls (methylcellulose): gavage once daily 7 days, 100 mg/kg, gemfibrozil 20 mg/Kg, troglitazone 6 and 60 mg/Kg, Dunnett's procedure
Procedure: (§3) PXR-KO mice were treated with either rifampicin, gemfibrozil, or CDD 3540. In all cases methylcellulose was used as a vehicle control. These chemicals were administered, as a suspension in 1% methylcellulose (vehicle) by gavage using a 20 G—1½-inch feeding needle. The animals were treated in groups of three and for each treated group two mice were treated simultaneously with methylcellulose (vehicle). Each treatment was given once daily in the morning for seven days. The doses were 100 mg/kg for CTZ, rifampicin, CDD 3540, phenobarbital and TCPOBOP, 6 mg/kg and 60 mg/Kg for troglitazone and 0.175 mg/Kg and 1.75 mg/Kg for hyperforin, and for gemfibrozil 20 mg/Kg and 100 mg/Kg. The volume of vehicle used to suspend the treatment drugs and the dose of vehicle for control group was 7 ml/kg.
(§4) After the completion of the treatment (i.e. on day 8), blood samples were collected from the tail of the animals for serum HDL-C and ApoA1 determination. Blood samples were allowed to clot for 2 hours, centrifuged at 14,000 rpm for 20 minutes, and serum was collected. The serum samples were then stored at −20° C. for up to 24 hours before quantitative determination of HDL-C and ApoA1.
An immuno-turbidimetric assay was developed for quantitative determination of ApoA1 in mouse serum. Commercially available stock solution of purified mouse ApoA1 (79 mg/dl) was used to construct a standard curve. A potassium phosphate buffer solution was prepared by diluting 1 ml of monobasic 1.0 M potassium phosphate buffer to 10 ml with distilled water, and the pH of the solution was adjusted to 7.2 using 0.1 N NaOH. […] A dilution of 1:4000 of the stock concentration was used per the manufacturer's recommendation. The standard curve was prepared with 0, 39.5, 79, and 158 mg/dl of mouse apoA1. 1 μl of mouse plasma was mixed with 3 μl of distilled water for quantitation of apoA1. 500 μl of buffer solution was added to 4 μl of total sample volume prepared as described. After 5 minutes, 100 μl of antibody solution was added. The mixture was allowed to incubate at 37° C. for 3 minutes. Absorbance was measured at 580 nm using a Beckmann DU640 Spectrophotometer. Each sample or standard was analyzed twice, and the average of both readings was used. Serum ApoA1 concentrations from control mice were also compared with the normal ApoA1 levels in mice, obtained from the literature, to affirm the validity of the assay procedure.
Statistical treatments for HDL-C and apoA1 in mice were identical. For each of these variables, three basic analyses were performed, one for WT mice, one for PXR-KOs, and one for the two groups combined. Statistical analysis was performed in SAS (SAS Release 8, 1999, SAS Institute Inc., Cary, N.C.). In all cases the primary method of comparing treatments was ANOVA. Prior to performing this analysis, both variables were normalized by the geometric mean of their associated controls. Normality and homoscedasticity (constancy of variance across groups) were evaluated, with an appropriate data transformation (logarithmic) applied if necessary. These properties were checked before (to evaluate the need for transformation) and after transformation (to confirm the adequacy of the transformation) using normal probability plots and Levene's test for equality of variances (Snedecor et al., Statistical Methods, 8th Edition, Iowa State University Press, pp. 59-62 and 252-253, 1989). […]

CYP3A = CYP3A activity in rats (hepatic microsomal EDM activity, ethosuximide clearance); assay type: in vivo, rat
Procedure: as §1
Ethosuximide was prepared as a 3.5% (w/v) solution dissolved in normal saline. Ethosuximide was administered in a dose of 35 mg/kg via tail vein injection 24 hours following the eighth pretreatment dose.
as §2

hepatic apoA1 mRNA [2] = assay: Hepatic apoA1 mRNA in rats after 8 days of treatment; assay type: in vivo, rat
Procedure: as §2, with “Treatments were administered by gavage once daily in the morning for eight (8) days. Whole” for “Whole”, “-20°” for “−20°”, “Ill.). […] Hepatic apoA1 mRNA was measured by Northern Blot hybridization to total hepatic RNA with oligonucleotides for apoprotein A1 and elongation factor-1α (EF-1α). The procedure was similar to that described in the Slama et al. reference for hepatic CYP3A mRNA. […]” for “Ill.).”

serum ApoA1 [3] = assay: Serum apoA1 in PXR-KO mice after 7 days of treatment; assay type: in vivo; conditions: for apoA1 relative to control: gavage once daily 7 days, gemfibrozil 20 mg/kg, others 100 mg/kg
Procedure: as §3, §4
An immuno-turbidimetric assay was developed for quantitative determination of ApoA1 in mouse serum. Commercially available stock solution of purified mouse ApoA1 (79 mg/dl) was used to construct a standard curve. A potassium phosphate buffer solution was prepared by diluting 1 ml of monobasic 1.0 M potassium phosphate buffer to 10 ml with distilled water, and the pH of the solution was adjusted to 7.2 using 0.1 N NaOH. […] 1 μl of mouse plasma was mixed with 3 μl of distilled water for quantitation of apoA1. […] Absorbance was measured at 580 nm using a Beckmann DU640 Spectrophotometer. Each sample or standard was analyzed twice, and the average of both readings was used. […]
Statistical treatments for HDL-C and apoA1 in mice were identical. […] Normality and homoscedasticity (constancy of variance across groups) were evaluated, with an appropriate data transformation (logarithmic) applied if necessary. […]

serum HDL-C = assay: Serum HDL-C in wild-type mice after 7 days of treatment; assay type: in vivo, wild-type (WT; C57BL/6) mice; conditions: for HDL-C relative to controls (methylcellulose): gavage once daily 7 days, 100 mg/kg, gemfibrozil 20 mg/kg, troglitazone 6 and 60 mg/Kg, Dunnett's procedure
Procedure: In all cases methylcellulose was used as a vehicle control. These chemicals were administered, as a suspension in 1% methylcellulose (vehicle) by gavage using a 20 G—1½-inch feeding needle. The animals were treated in groups of three and for each treated group two mice were treated simultaneously with methylcellulose (vehicle). Each treatment was given once daily in the morning for seven days. […] The volume of vehicle used to suspend the treatment drugs and the dose of vehicle for control group was 7 ml/kg. Doses were selected based on the results obtained from previous studies in rats except for troglitazone and hyperforin, for which doses were weight-adjusted using estimates of average daily human doses as reference. After the completion of the treatment (i.e. on day 8), blood samples were collected from the tail of the animals for serum HDL-C and ApoA1 determination. Blood samples were allowed to clot for 2 hours, centrifuged at 14,000 rpm for 20 minutes, and serum was collected. The serum samples were then stored at −20° C. for up to 24 hours before quantitative determination of HDL-C and ApoA1. HDL-C was determined quantitatively in the serum using Liquid Direct HDL kits. The kit contained reagent 1, reagent 2, and HDL calibrator. The assay consisted of two steps. […] The peroxide byproduct of this reaction is rendered non-colored via catalase reduction. […] In this second step, the catalase is inhibited, the remaining HDL cholesterol specifically reacts with cholesterol esterase and cholesterol oxidase, and in the presence of peroxidase the peroxide byproduct reacts with 4-aminoantipyrine and HDAOS to form a colored […] dye. Both these reactions were allowed to occur at 37° C. […] Each sample was analyzed twice, and the average of both readings was used. Statistical treatments for HDL-C and apoA1 in mice were identical. For each of these variables, three basic analyses were performed, one for WT mice, one for PXR-KOs, and one for the two groups combined. Statistical analysis was performed in SAS (SAS Release 8, 1999, SAS Institute Inc., Cary, N.C.). In all cases the primary method of comparing treatments was ANOVA. Prior to performing this analysis, both variables were normalized by the geometric mean of their associated controls. Normality and homoscedasticity (constancy of variance across groups) were evaluated, with an appropriate data transformation (logarithmic) applied if necessary. These properties were checked before (to evaluate the need for transformation) and after transformation (to confirm the adequacy of the transformation) using normal probability plots and Levene's test for equality of variances (Snedecor et al., Statistical Methods, 8th Edition, Iowa State University Press, pp. 59-62 and 252-253, 1989). […]

hepatic apoA1 mRNA [4] = assay: Time course of hepatic apoA1 mRNA in rats (Northern blot); assay type: in vivo, rat; conditions: 50 mg/Kg by gavage once daily, beginning after treatment day 2 and constant thereafter, p<0.05 vs vehicle controls
Procedure: Hepatic apoA1 mRNA was measured by Northern Blot hybridization to total hepatic RNA with oligonucleotides for apoprotein A1 and elongation factor-1α (EF-1α). The procedure was similar to that described in the Slama et al. reference for hepatic CYP3A mRNA. The following oligonucleotide sequence used for rat apoA1 mRNA was based on the nucleotide sequence for rat apoA1 described by Haddad et al. (“Linkage, evolution and expression of the rat apolipoprotein A-1, C-III, and A-IV genes,” J Biol Chem 1986; 261: 13268-13277): 3′ CTACGTCAGTTCCTGTCGCCGTCTCTGATACACAGGGTCAAACTTAGGAGGTGAAACCCG 5′.
[…] were dosed with CDD 3540 (50 mg/Kg) by gavage once daily for 8 days, and three rats were treated with methylcellulose (vehicle controls). Groups of three treated rats were sacrificed at 6 and 12 h after the first dose, 12 and 24 h after the second dose, and at 12 hours after doses 4-8, respectively. Hepatic apoA1 mRNA was quantitated by northern blot analysis as described above.
Temporal differences in hepatic apoA1 mRNA in rats were evaluated by a simple Analysis of Variance (ANOVA) and a Tukey's post-hoc test.

| Structure (SMILES) | HDL-C (HDL-C) | increase in apoA1 relative to controls (serum ApoA1 [1]; 100 mg/kg once daily 7 days) [fold] | apoA1 relative to controls (methylcellulose) (serum ApoA1 [1]) | CYP3A activity (CYP3A) | apoA1 (hepatic apoA1 mRNA [2]) | apoA1 relative to control (serum ApoA1 [3]) | HDL-C relative to controls (methylcellulose) (serum HDL-C) | increase in hepatic apoA1 (hepatic apoA1 mRNA [4]) [%] | dose at peak of the dose-response curve (serum ApoA1 [1]; apoA1 and HDL-C, declined with higher doses) [mg/kg] | increase in apoA1 relative to control (serum ApoA1 [3]; gemfibrozil 20 mg/kg once daily 7 days) [fold] | increase in HDL-C (serum HDL-C; 100 mg/Kg once daily 7 days) |
| --- | --- | --- | --- | --- | --- | --- | --- | --- | --- | --- | --- |
| Fc1ccc(C(c2ccc(F)cc2)(c2ccc(F)cc2)n2ccnc2)cc1 [CDD 3540] | increase | ~3.7 | significantly elevated | increase | increase | neither rifampin nor CDD 3540 elicited significant changes | significantly elevated | ~45 |  |  |  |
| Clc1cnc(Oc2ccc(Oc3ncc(Cl)cc3Cl)cc2)c(Cl)c1 [TCPOBOP, 1,4-bis[2-(3,5-dichloropyridyloxy)]benzene] |  |  | did not significantly elevate |  |  |  | did not significantly elevate |  |  |  |  |
| Cc1ccc(C)c(OCCCC(C)(C)C(=O)O)c1 [gemfibrozil] |  |  | significantly elevated |  |  | significantly increase | significantly elevated |  | 20 | ~1.7 |  |
| CO[C@H]1/C=C/O[C@@]2(C)Oc3c(C)c(O)c4c(O)c(c(/C=N/N5CCN(C)CC5)c(O)c4c3C2=O)NC(=O)/C(C)=C\C=C\[C@H](C)[C@H](O)[C@@H](C)[C@@H](O)[C@@H](C)[C@H](OC(C)=O)[C@@H]1C [rifampin, rifampicin] |  |  |  |  |  |  |  |  |  |  | about 25% |
